Results published in patent US20090036418A1, “Pharmaceutical composition for treatment of cancer containing pyridylpyridazine or transition metal complex thereof as active ingredient” (priority 2005, published 2009).

Test system: XF-498 (human brain cancer)
Assay: SRB assay, XF-498 cancer cell line
Format: cell-based
Conditions: brain cancer cell line of Test Example 1, SRB assay
Method: The pyridylpyridazine compounds prepared in Preparation Examples 1 to 5 and transition metal complexes thereof were evaluated for the anticancer activities thereof. As cancer cell lines used in the test, A549 (human lung cancer), SK-MEL-2 (human skin cancer), HCT-15 (human colon cancer), SK-OV-3 (human […]) and XF-498 (human brain cancer) among 60 kinds of cancer cell lines[Ross, D. T. et al., Systematic variation in gene expression patterns I human cancer cell lines. Nature genetics, 24, 227-235 (2000)], which are used for the search of anticancer activity in the US National Cancer Institute, were obtained from the Bioorganic Research Division, the Korea Research Institute of Chemical Technology. The anticancer activities of the cell lines were evaluated by measuring ED50 values according to the sulforhodamine B (SRB) assay described in the literature[Choi, S. et al., Cytotoxicity of trichlorothecenes to human solid tumor cells in vitro. Arch. Pharm. Res. 19, 6-11 (1996)]. […]
More specifically, the SRB assay was performed in the following manner. […] After completion of the culture, each well was well washed, treated with 150 μl (10 mM) of unbuffer ED Tris solution to dissolve out the SRB dye, and then measured for absorbance at 520 nm using a reader for 96-well plates. […]

`c1ccc(-c2ccc(-c3ccccn3)nn2)nc1` [Compound of Preparation Example 1, 3,6-bis(2′-pyridyl)pyridazine] was tested, and the “anticancer activity against the brain cancer cell line (in words)” value was “high anticancer activity”.
In the case of “[3,6-bis(6′-methyl-2′-pyridyl)pyridazine]zinc(II) chloride [Compound of Preparation Example 4]”, the “anticancer activity against the brain cancer cell line (in words)” value was “excellent anticancer activity”.
